# Results taken from US12565490B2, “Inhibitors of Receptor Interacting Protein Kinase I for the treatment of disease” (Board of Regents, The University of Texas System, priority 2020, dated 2026).
# Test system: human monocytic cell line U937
# Test: Human U937 cellular necroptosis assay
# Assay type: cell-based
# Conditions: U-937; U937 cells stimulated with 25 ng/mL human TNFalpha and 25 μM z-VAD-FMK; 22 hr; viability by Cell Titer-Glo 2.0; read-out: hU937 IC50
# How it was run: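 U937 cells (5000/well) driven to necroptosis by 25 ng/mL human TNFalpha plus 25 μM z-VAD-FMK alongside 1:3-diluted compounds, 22 hr at 37° C, 5% CO2. Viability by CellTiter-Glo luminescence; IC50 from four-parameter logistic fit.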
row,Compound,IC50 [nM]
1,"Cc1cc(F)ccc1-c1nc(C(=O)N[C@H]2COc3cc(F)cnc3N(C)C2=O)ncc1F [Example 67, (S)-5-fluoro-4-(4-fluoro-2-methylphenyl)-N-(8-fluoro-5-methyl-4-oxo-2,3,4,5-tetrahydropyrido[3,2-b]-[1,4]oxazepin-3-yl)pyrimidine-2-carboxamide]",24.7
2,"CN1C(=O)[C@@H](NC(=O)c2ncc(Cl)c(-c3cncnc3)n2)COc2cc(Cl)cnc21 [Example 111, (S)-5-chloro-N-(8-chloro-5-methyl-4-oxo-2,3,4,5-tetrahydropyrido[3,2-b]-[1,4]oxazepin-3-yl)-[4,5′-bipyrimidine]-2-carboxamide]",485
3,"CN1C(=O)[C@@H](NC(=O)c2ncc(Cl)c(-c3cc(F)ccc3F)n2)COc2cc(Cl)cnc21 [Example 98, (S)-5-chloro-N-(8-chloro-5-methyl-4-oxo-2,3,4,5-tetrahydropyrido[3,2-b]-[1,4]oxazepin-3-yl)-4-(2,5-difluorophenyl)pyrimidine-2-carboxamide]",7.25
4,"CN1C(=O)[C@@H](NC(=O)c2ncc(Cl)c(-c3cccc4[nH]cnc34)n2)COc2cc(Cl)cnc21 [Example 113, (S)-4-(1H-benzo[d]imidazol-4-yl)-5-chloro-N-(8-chloro-5-methyl-4-oxo-2,3,4,5-tetrahydropyrido[3,2-b]-[1,4]oxazepin-3-yl)pyrimidine-2-carboxamide]",7760
5,"CN1C(=O)[C@@H](NC(=O)c2ncc(Cl)c(-c3ccc(F)cc3F)n2)COc2ccc(N3CCOCC3)cc21 [Example 143, (S)-5-chloro-4-(2,4-difluorophenyl)-N-(5-methyl-7-morpholino-4-oxo-2,3,4,5-tetrahydrobenzo[b]-[1,4]oxazepin-3-yl)pyrimidine-2-carboxamide]",71
6,"CN1C(=O)[C@@H](NC(=O)c2ncc(Cl)c(-c3cc(F)ccc3F)n2)COc2cc(C#N)ccc21 [Example 130, (S)-5-chloro-N-(8-cyano-5-methyl-4-oxo-2,3,4,5-tetrahydrobenzo[b]-[1,4]oxazepin-3-yl)-4-(2,5-difluorophenyl)pyrimidine-2-carboxamide]",16.1
7,"Cc1cnc(C(=O)N[C@H]2COc3cc(C#N)ccc3N(C)C2=O)nc1C1CCOCC1 [Example 134, (S)-N-(8-cyano-5-methyl-4-oxo-2,3,4,5-tetrahydrobenzo[b]-[1,4]oxazepin-3-yl)-5-methyl-4-(tetrahydro-2H-pyran-4-yl)-pyrimidine-2-carboxamide]",246
8,"CN1C(=O)[C@@H](NC(=O)c2ncc(Cl)c(-c3ccccc3Cl)n2)COc2cc(Cl)cnc21 [Example 101, (S)-5-chloro-N-(8-chloro-5-methyl-4-oxo-2,3,4,5-tetrahydropyrido[3,2-b]-[1,4]oxazepin-3-yl)-4-(2-chlorophenyl)pyrimidine-2-carboxamide]",14.7
9,"COc1cc2c(cn1)N(C)C(=O)[C@@H](NC(=O)c1ncc(C)c(-c3ccccc3)n1)CC2 (stereo in doubt) [Example 11, N-(7-methoxy-1-methyl-2-oxo-2,3,4,5-tetrahydro-1H-pyrido[3,4-b]azepin-3-yl)-5-methyl-4-phenylpyrimidine-2-carboxamide]",459
10,"Cc1cnc(C(=O)N[C@H]2COc3cc(C#N)ccc3N(C)C2=O)nc1N1CCC(F)(F)C1 [Example 23, (S)-N-(8-cyano-5-methyl-4-oxo-2,3,4,5-tetrahydro-benzo[b][1,4]oxazepin-3-yl)-4-(3,3-difluoropyrrolidin-1-yl)-5-methylpyrimidine-2-carboxamide]",830
11,"CN1C(=O)[C@@H](NC(=O)c2ncc(Cl)c(-c3ccccc3)n2)COc2cc(C#N)ccc21 [Example 24, (S)-5-chloro-N-(8-cyano-5-methyl-4-oxo-2,3,4,5-tetrahydro-benzo[b][1,4]oxazepin-3-yl)-4-phenylpyrimidine-2-carboxamide]",19.2
12,"CN1C(=O)[C@@H](NC(=O)c2ncc(Cl)c(-c3cncc(F)c3)n2)COc2cccnc21 [Example 56, (S)-5-chloro-4-(5-fluoropyridin-3-yl)-N-(5-methyl-4-oxo-2,3,4,5-tetrahydropyrido[3,2-b]-[1,4]oxazepin-3-yl)pyrimidine-2-carboxamide]",180
13,"Cc1ncc(-c2nc(C(=O)N[C@H]3COc4cc(Cl)cnc4N(C)C3=O)ncc2Cl)cn1 [Example 110, (S)-5-chloro-N-(8-chloro-5-methyl-4-oxo-2,3,4,5-tetrahydropyrido[3,2-b]-[1,4]oxazepin-3-yl)-2′-methyl-[4,5′-bipyrimidine]-2-carboxamide]",3560
14,"Cc1cnc(C(=O)N[C@H]2COc3cc(C#N)ccc3N(C)C2=O)nc1N1CC(F)(F)C1 [Example 32, (S)-N-(8-cyano-5-methyl-4-oxo-2,3,4,5-tetrahydro-benzo[b][1,4]oxazepin-3-yl)-4-(3,3-difluoroazetidin-1-yl)-5-methylpyrimidine-2-carboxamide]",1120
15,"CN1C(=O)[C@@H](NC(=O)c2ncc(Cl)c(-c3ccc(F)cc3F)n2)COc2cccnc21 [Example 50, (S)-5-chloro-4-(2,4-difluorophenyl)-N-(5-methyl-4-oxo-2,3,4,5-tetrahydro-pyrido[3,2-b][1,4]oxazepin-3-yl)pyrimidine-2-carboxamide]",9.29
16,"Cc1cnc(C(=O)N[C@H]2COc3cc(C#N)ccc3N(C)C2=O)nc1N1CC2CCC1C2 (stereo partly drawn) [Example 44, 4-(2-azabicyclo[2.2.1]heptan-2-yl)-N-((S)-8-cyano-5-methyl-4-oxo-2,3,4,5-tetrahydro-benzo[b][1,4]oxazepin-3-yl)-5-methylpyrimidine-2-carboxamide]",789
17,"Cc1cnc(C(=O)N[C@H]2COc3ccc(CN4CCn5ncnc5C4)cc3N(C)C2=O)nc1-c1ccccc1 [Example 39, (S)-N-(7-((5,6-dihydro-[1,2,4]triazolo[1,5-a]pyrazin-7(8H)-yl)methyl)-5-methyl-4-oxo-2,3,4,5-tetrahydro-benzo[b][1,4]oxazepin-3-yl)-5-methyl-4-phenylpyrimidine-2-carboxamide]",12.9
18,"CN1C(=O)[C@@H](NC(=O)c2ncc(Cl)c(-c3cccc(Cl)c3)n2)COc2cc(F)cnc21 [Example 81, (S)-5-chloro-4-(3-chlorophenyl)-N-(8-fluoro-5-methyl-4-oxo-2,3,4,5-tetrahydropyrido[3,2-b]-[1,4]oxazepin-3-yl)pyrimidine-2-carboxamide]",29.6
19,"Cc1cccc(-c2ccnc(C(=O)N[C@H]3COc4cc(F)cnc4N(C)C3=O)n2)c1 [Example 65, (S)-N-(8-fluoro-5-methyl-4-oxo-2,3,4,5-tetrahydro-pyrido[3,2-b][1,4]oxazepin-3-yl)-4-(m-tolyl)pyrimidine-2-carboxamide]",177
20,"Cc1cnc(C(=O)N[C@H]2COc3ccc(CN4CCn5ncnc5C4)cc3N(C)C2=O)nc1-c1ccccc1F [Example 156, (S)-N-(7-((5,6-dihydro-[1,2,4]triazolo[1,5-a]pyrazin-7(8H)-yl)methyl)-5-methyl-4-oxo-2,3,4,5-tetrahydrobenzo[b]-[1,4]oxazepin-3-yl)-4-(2-fluorophenyl)-5-methylpyrimidine-2-carboxamide]",17.1
21,"Cc1ccc(-c2nc(C(=O)N[C@H]3COc4cc(C#N)ccc4N(C)C3=O)ncc2C)c(F)c1 [Example 30, (S)-N-(8-cyano-5-methyl-4-oxo-2,3,4,5-tetrahydro-benzo[b][1,4]oxazepin-3-yl)-4-(2-fluoro-4-methylphenyl)-5-methylpyrimidine-2-carboxamide]",32.3
22,"CN1C(=O)[C@@H](NC(=O)c2ncc(Cl)c(-c3ccccc3F)n2)COc2cccnc21 [Example 47, (S)-5-chloro-4-(2-fluorophenyl)-N-(5-methyl-4-oxo-2,3,4,5-tetrahydro-pyrido[3,2-b][1,4]oxazepin-3-yl)pyrimidine-2-carboxamide]",29.8
23,"CN1C(=O)[C@@H](NC(=O)c2ncc(Cl)c(-c3cccc(F)c3)n2)COc2cccnc21 [Example 48, (S)-5-chloro-4-(3-fluorophenyl)-N-(5-methyl-4-oxo-2,3,4,5-tetrahydro-pyrido[3,2-b][1,4]oxazepin-3-yl)pyrimidine-2-carboxamide]",13.2
24,"Cc1ccc(-c2nc(C(=O)N[C@H]3COc4ccc(CN5CCn6ncnc6C5)cc4N(C)C3=O)ncc2Cl)cc1F [Example 153, (S)-5-chloro-N-(7-((5,6-dihydro-[1,2,4]triazolo[1,5-a]pyrazin-7(8H)-yl)methyl)-5-methyl-4-oxo-2,3,4,5-tetrahydrobenzo[b]-[1,4]oxazepin-3-yl)-4-(3-fluoro-4-methylphenyl)pyrimidine-2-carboxamide]",10
25,"Cc1cnc(C(=O)N[C@H]2COc3cccnc3N(C)C2=O)nc1C1CCOCC1 [Example 58, (S)-5-methyl-N-(5-methyl-4-oxo-2,3,4,5-tetrahydro-pyrido[3,2-b][1,4]oxazepin-3-yl)-4-(tetrahydro-2H-pyran-4-yl)pyrimidine-2-carboxamide]",229
26,"Cc1ccc(-c2nc(C(=O)N[C@H]3COc4cc(C#N)ccc4N(C)C3=O)ncc2C)cc1 [Example 137, (S)-N-(8-cyano-5-methyl-4-oxo-2,3,4,5-tetrahydrobenzo[b]-[1,4]oxazepin-3-yl)-5-methyl-4-(p-tolyl)pyrimidine-2-carboxamide]",18.8
27,"Cc1ccc(C(=O)N[C@H]2COc3cc(C#N)ccc3N(C)C2=O)nc1-c1cc(F)ccc1F [Example 41, (S)-N-(8-cyano-5-methyl-4-oxo-2,3,4,5-tetrahydro-benzo[b][1,4]oxazepin-3-yl)-6-(2,5-difluorophenyl)-5-methylpicolinamide]",594
28,"CN1C(=O)[C@@H](NC(=O)c2ncc(Cl)c(-c3ccc(F)cc3)n2)COc2cc(C#N)ccc21 [Example 129, (S)-5-chloro-N-(8-cyano-5-methyl-4-oxo-2,3,4,5-tetrahydrobenzo[b]-[1,4]oxazepin-3-yl)-4-(4-fluorophenyl)pyrimidine-2-carboxamide]",13.8
